# Experiments:
# Test in all cases: Test E flooded paddy rice and weeds
# Type in all cases: in vivo
# [1] = system: barnyardgrass (Echinochloa crus-galli); details: applied to paddy water, 21 days
# From the text: (§1) Three plastic pots (ca. 16-cm diameter) for each application were partially filled with sterilized Tama silt loam soil comprising a 35:50:15 ratio of sand, silt and clay and 2.6% organic matter. Separate plantings for each of the three pots were as follows. Seeds from the U.S. of ducksalad (Heteranthera limosa), sedge (smallflower umbrella sedge, Cyperus difformis), ricefield bulrush (Scirpus mucronatus) and redstem (purple redstem, Ammannia coccinea), were planted into one 16-cm pot for each rate. Seeds from the U.S. of flatsedge (rice flatsedge, Cyperus iria), sprangletop (bearded (i.e. Brdd.) sprangletop, Leptochloa fascicularis), one stand of 9 or 10 water seeded rice seedlings (Oryza sativa cv. ‘Japonica—M202’), and two stands of 3 or 4 transplanted rice seedlings (Oryza sativa cv. ‘Japonica—M202’) were planted into one 16-cm pot for each rate. Seeds from the U.S. of barnyardgrass (Echinochloa crus-galli), late watergrass (Echinochloa oryzicola), early watergrass (Echinochloa oryzoides) and junglerice (Echinochloa colona) were planted into one 16-cm pot for each rate. Plantings were sequential so that crop and weed species were at the 2.0 to 2.5-leaf stage at time of treatment.
# (§2) Potted plants were grown in a greenhouse with day/night temperature settings of 30/27° C., and supplemental balanced lighting was provided to maintain a 16-hour photoperiod. Test pots were maintained in the greenhouse until test completion.
# (§3) At time of treatment, test pots were flooded to 3 cm above the soil surface, treated by application of test compounds directly to the paddy water, and then maintained at that water depth for the duration of the test. Effects of treatments on rice and weeds were visually evaluated by comparison to untreated controls after 21 days. Plant response ratings, summarized in Table E, are based on a scale of 0 to 100 where 0 is no effect and 100 is complete control. A dash (-) response means no test result.
# [2] = system: sedge (smallflower umbrella sedge, Cyperus difformis); details: applied to paddy water, 21 days, scale 0 to 100
# From the text: as §1, §2, §3
# [3] = system: transplanted rice seedlings (Oryza sativa cv. ‘Japonica—M202’); details: applied to paddy water, 21 days, scale 0 to 100
# From the text: as §1, §2, §3
# [4] = system: redstem (purple redstem, Ammannia coccinea); details: applied to paddy water, 21 days, scale 0 to 100
# From the text: as §1, §2, §3
# [5] = system: late watergrass (Echinochloa oryzicola); details: applied to paddy water, 21 days, scale 0 to 100
# From the text: as §1, §2, §3
# [6] = system: flatsedge (rice flatsedge, Cyperus iria); details: applied to paddy water, 21 days, scale 0 to 100
# From the text: as §1, §2, §3
# [7] = system: junglerice (Echinochloa colona); details: applied to paddy water, 21 days, scale 0 to 100
# From the text: as §1, §2, §3
# [8] = system: early watergrass (Echinochloa oryzoides); details: applied to paddy water, 21 days, scale 0 to 100
# From the text: as §1, §2, §3
# [9] = system: water seeded rice seedlings (Oryza sativa cv. ‘Japonica—M202’); details: applied to paddy water, 21 days, scale 0 to 100
# From the text: as §1, §2, §3
# [10] = system: ricefield bulrush (Scirpus mucronatus); details: applied to paddy water, 21 days, scale 0 to 100
# From the text: as §1, §2, §3
# [11] = system: ducksalad (Heteranthera limosa); details: applied to paddy water, 21 days, scale 0 to 100
# From the text: as §1, §2, §3
smiles,measurement,setting,value
COc1ccc(-n2c(-c3ccccc3)ncc(C(=O)C3=C(O)CCCC3=O)c2=O)cc1OC [Compound 218],"Plant response rating, Barnyardgrass, Flood","[1]; 32 g ai/ha, scale 0 to 100",0
same,"Plant response rating, Barnyardgrass, Flood","[1]; 64 g ai/ha, scale 0 to 100",0
same,"Plant response rating, Barnyardgrass, Flood","[1]; 125 g ai/ha, scale 0 to 100",30
same,"Plant response rating, Barnyardgrass, Flood","[1]; 250 g ai/ha, scale 0 to 100",95
same,"Plant response rating, Sedge, Umbrella, Flood",[2]; 32 g ai/ha,85
same,"Plant response rating, Sedge, Umbrella, Flood",[2]; 64 g ai/ha,95
same,"Plant response rating, Sedge, Umbrella, Flood",[2]; 125 g ai/ha,100
same,"Plant response rating, Sedge, Umbrella, Flood",[2]; 250 g ai/ha,100
same,"Plant response rating, Rice, Transplanted, Flood",[3]; 32 g ai/ha,0
same,"Plant response rating, Rice, Transplanted, Flood",[3]; 64 g ai/ha,0
same,"Plant response rating, Rice, Transplanted, Flood",[3]; 125 g ai/ha,0
same,"Plant response rating, Rice, Transplanted, Flood",[3]; 250 g ai/ha,10
same,"Plant response rating, Redstem, Flood",[4]; 32 g ai/ha,65
same,"Plant response rating, Redstem, Flood",[4]; 64 g ai/ha,65
same,"Plant response rating, Redstem, Flood",[4]; 125 g ai/ha,75
same,"Plant response rating, Redstem, Flood",[4]; 250 g ai/ha,80
same,"Plant response rating, Watergrass, Late, Flood",[5]; 32 g ai/ha,20
same,"Plant response rating, Watergrass, Late, Flood",[5]; 64 g ai/ha,40
same,"Plant response rating, Watergrass, Late, Flood",[5]; 125 g ai/ha,40
same,"Plant response rating, Watergrass, Late, Flood",[5]; 250 g ai/ha,70
same,"Plant response rating, Flatsedge, Rice, Flood",[6]; 32 g ai/ha,75
same,"Plant response rating, Flatsedge, Rice, Flood",[6]; 64 g ai/ha,70
same,"Plant response rating, Flatsedge, Rice, Flood",[6]; 125 g ai/ha,70
same,"Plant response rating, Flatsedge, Rice, Flood",[6]; 250 g ai/ha,75
same,"Plant response rating, Junglerice, Flood",[7]; 32 g ai/ha,0
same,"Plant response rating, Junglerice, Flood",[7]; 64 g ai/ha,0
same,"Plant response rating, Junglerice, Flood",[7]; 125 g ai/ha,65
same,"Plant response rating, Junglerice, Flood",[7]; 250 g ai/ha,100
same,"Plant response rating, Watergrass, Early, Flood",[8]; 32 g ai/ha,0
same,"Plant response rating, Watergrass, Early, Flood",[8]; 64 g ai/ha,20
same,"Plant response rating, Watergrass, Early, Flood",[8]; 125 g ai/ha,20
same,"Plant response rating, Watergrass, Early, Flood",[8]; 250 g ai/ha,60
same,"Plant response rating, Rice, Water Seeded, Flood",[9]; 32 g ai/ha,15
same,"Plant response rating, Rice, Water Seeded, Flood",[9]; 64 g ai/ha,0
same,"Plant response rating, Rice, Water Seeded, Flood",[9]; 125 g ai/ha,20
same,"Plant response rating, Rice, Water Seeded, Flood",[9]; 250 g ai/ha,35
same,"Plant response rating, Bulrush, Ricefield, Flood",[10]; 32 g ai/ha,80
same,"Plant response rating, Bulrush, Ricefield, Flood",[10]; 64 g ai/ha,80
same,"Plant response rating, Bulrush, Ricefield, Flood",[10]; 125 g ai/ha,90
same,"Plant response rating, Bulrush, Ricefield, Flood",[10]; 250 g ai/ha,100
same,"Plant response rating, Ducksalad, Flood",[11]; 32 g ai/ha,80
same,"Plant response rating, Ducksalad, Flood",[11]; 64 g ai/ha,85
same,"Plant response rating, Ducksalad, Flood",[11]; 125 g ai/ha,95
same,"Plant response rating, Ducksalad, Flood",[11]; 250 g ai/ha,100
"COc1ccc(-n2c(-c3ccccc3)ncc(C(=O)C3=C(O)CCCC3=O)c2=O)cc1 [Compound 4, 5-[(2-hydroxy-6-oxo-cyclohexen-1-yl)carbonyl]-3-(4-methoxyphenyl)-2-phenyl-4(3H)-pyrimidinone]","Plant response rating, Barnyardgrass, Flood","[1]; 125 g ai/ha, scale 0 to 100",0
same,"Plant response rating, Barnyardgrass, Flood","[1]; 250 g ai/ha, scale 0 to 100",60
same,"Plant response rating, Barnyardgrass, Flood","[1]; 500 g ai/ha, scale 0 to 100 (0 no effect, 100 complete control)",60
same,"Plant response rating, Sedge, Umbrella, Flood",[2]; 125 g ai/ha,90
same,"Plant response rating, Sedge, Umbrella, Flood",[2]; 250 g ai/ha,95
same,"Plant response rating, Sedge, Umbrella, Flood",[2]; 500 g ai/ha,100
same,"Plant response rating, Rice, Transplanted, Flood",[3]; 125 g ai/ha,0
same,"Plant response rating, Rice, Transplanted, Flood",[3]; 250 g ai/ha,0
same,"Plant response rating, Rice, Transplanted, Flood",[3]; 500 g ai/ha,15
same,"Plant response rating, Redstem, Flood",[4]; 125 g ai/ha,80
same,"Plant response rating, Redstem, Flood",[4]; 250 g ai/ha,80
same,"Plant response rating, Redstem, Flood",[4]; 500 g ai/ha,85
same,"Plant response rating, Watergrass, Late, Flood",[5]; 125 g ai/ha,0
same,"Plant response rating, Watergrass, Late, Flood",[5]; 250 g ai/ha,15
same,"Plant response rating, Watergrass, Late, Flood",[5]; 500 g ai/ha,60
same,"Plant response rating, Flatsedge, Rice, Flood",[6]; 125 g ai/ha,0
same,"Plant response rating, Flatsedge, Rice, Flood",[6]; 250 g ai/ha,40
same,"Plant response rating, Flatsedge, Rice, Flood",[6]; 500 g ai/ha,90
same,"Plant response rating, Junglerice, Flood",[7]; 125 g ai/ha,0
same,"Plant response rating, Junglerice, Flood",[7]; 250 g ai/ha,25
same,"Plant response rating, Junglerice, Flood",[7]; 500 g ai/ha,50
same,"Plant response rating, Watergrass, Early, Flood",[8]; 125 g ai/ha,0
same,"Plant response rating, Watergrass, Early, Flood",[8]; 250 g ai/ha,60
same,"Plant response rating, Watergrass, Early, Flood",[8]; 500 g ai/ha,65
same,"Plant response rating, Rice, Water Seeded, Flood",[9]; 125 g ai/ha,10
same,"Plant response rating, Rice, Water Seeded, Flood",[9]; 250 g ai/ha,20
same,"Plant response rating, Rice, Water Seeded, Flood",[9]; 500 g ai/ha,50
same,"Plant response rating, Bulrush, Ricefield, Flood",[10]; 125 g ai/ha,40
same,"Plant response rating, Bulrush, Ricefield, Flood",[10]; 250 g ai/ha,80
same,"Plant response rating, Bulrush, Ricefield, Flood",[10]; 500 g ai/ha,80
same,"Plant response rating, Ducksalad, Flood",[11]; 125 g ai/ha,90
same,"Plant response rating, Ducksalad, Flood",[11]; 250 g ai/ha,100
same,"Plant response rating, Ducksalad, Flood",[11]; 500 g ai/ha,100

# — US8952024B2, “Herbicidal pyrimidone derivatives” (E I du Pont de Nemours and Company, priority 2009, dated 2015)
